The values below come from ChEMBL document CHEMBL1201862, “PubChem BioAssay data set” (2004).

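All cell lines were grown in 96-well plates and treated with compound for 48 hours. GI50 marks 50% less growth.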 Active and inactive are the calls of the source. Cut-off read from the data, not from the text of the source: active = GI50 up to about 1.1 µM and inactive = higher.

Among the test systems are SW-620; HCT-15; SK-MEL-2; SF-295; HCC 2998; UACC-62; NCI-H23; RXF 393; OVCAR-3; SF-539; RPMI-8226; EKVX; 786-0; Malme-3M; SNB-75; UO-31.
Assay in all cases: growth of human tumour cells (NCI), 48 h

`COC(=O)C1=C(C[S+]([O-])c2ccc([N+](=O)[O-])cc2[N+](=O)[O-])ON(C)C1c1ccccc1` (centres undefined): the GI50 with SW-620 is 15.7 µM (inactive); in the assay on HCT-15 it was 37.8 µM; in the assay on SK-MEL-2, 37 µM (inactive); with SF-295, 46.8 µM (inactive); in the assay on HCC 2998 it was > 37.8 µM (inactive); with UACC-62, 24.2 µM (inactive). In addition, the GI50 with NCI-H23 was 25.3 µM (inactive); with RXF 393 it was > 42.2 µM (inactive); with OVCAR-3 it was 43.2 µM (inactive); with SF-539, 21.9 µM (inactive); in the assay with RPMI-8226, 13.4 µM (inactive); in the assay on EKVX, > 64.6 µM (inactive). The GI50 was 67.1 µM (inactive) with 786-0, > 84.5 µM (inactive) with Malme-3M, 16.3 µM (inactive) in the assay on SNB-75 and 39.4 µM (inactive) in the assay with UO-31.
Turning to `COc1cc2c(cc1OC)C(Cc1cc(Br)c(OC)c(OC)c1)=[N+](C)CC2`, the GI50 in the assay with SW-620 was 67.3 µM (inactive); in the assay with HCT-15, > 100 µM; in the assay on SK-MEL-2 it was > 100 µM (inactive); with SF-295, 30.5 µM (inactive); in the assay with HCC 2998, > 100 µM (inactive); in the assay with UACC-62, > 100 µM (inactive). Further, the GI50 in the assay on NCI-H23 is 14.6 µM (inactive); in the assay on RXF 393 it was 69.7 µM (inactive); in the assay on OVCAR-3, 28.2 µM (inactive); in the assay on SF-539, > 100 µM (inactive); in the assay with RPMI-8226, 43.2 µM (inactive); in the assay on EKVX it was > 100 µM (inactive). Further, the GI50 with 786-0 is > 100 µM (inactive); in the assay on Malme-3M it was > 100 µM (inactive); with SNB-75, 94.4 µM (inactive); with UO-31, > 100 µM (inactive).
For the compound `CCCCCCCCCCCCCCCC(=O)OCC1OC(n2cc(F)c(=O)[nH]c2=O)C(N)C(O)C1O` (centres undefined), the GI50 is 16.7 µM (inactive) in the assay on SW-620; 17.1 µM (inactive) with SF-295; 14.5 µM (inactive) with HCC 2998; 16.2 µM (inactive) in the assay on UACC-62; 19.7 µM (inactive) in the assay with NCI-H23; 2.19 µM (inactive) with OVCAR-3. Besides, the GI50 in the assay with SF-539 is 19.4 µM (inactive); in the assay on RPMI-8226, 23.3 µM (inactive); with EKVX, 18.8 µM (inactive); in the assay on 786-0, 19.1 µM (inactive); with Malme-3M, 19.4 µM (inactive); with SNB-75 it was 19.2 µM (inactive). The GI50 with UO-31 was 15.6 µM (inactive).
As to `Cn1c(=O)c(/N=N/c2c(=O)n(C)c(=O)n3c2[nH]c2ccccc23)c2[nH]c3ccccc3n2c1=O`, the GI50 in the assay on SW-620 is > 100 µM (inactive); with HCT-15 it was 48.5 µM; with SK-MEL-2 it was > 100 µM (inactive); in the assay with SF-295 it was 12.4 µM (inactive); with HCC 2998 it was > 100 µM (inactive); with UACC-62, > 100 µM (inactive). In addition, the GI50 in the assay on NCI-H23 is 71.1 µM (inactive); in the assay on RXF 393 it was > 100 µM (inactive); in the assay on OVCAR-3, > 100 µM (inactive); in the assay with SF-539, 57.4 µM (inactive); in the assay on RPMI-8226, > 100 µM (inactive); in the assay with EKVX, > 100 µM (inactive). In addition, the GI50 in the assay with 786-0 is 41.9 µM (inactive); in the assay with Malme-3M it was > 100 µM (inactive); in the assay with SNB-75 it was 29.1 µM (inactive); in the assay with UO-31, 87.3 µM (inactive).
As for `Cc1ccc(S(=O)(=O)NC(=O)NCCc2ccccc2)cc1`, the GI50 in the assay with SW-620 was > 100 µM (inactive); with SK-MEL-2 it was > 100 µM (inactive); in the assay with SF-295, > 100 µM (inactive); in the assay with HCC 2998, > 100 µM (inactive); with UACC-62 it was > 100 µM (inactive); in the assay with NCI-H23, 76.7 µM (inactive). The GI50 in the assay with RXF 393 is 77.6 µM (inactive); in the assay with OVCAR-3 it was > 100 µM (inactive); in the assay with SF-539 it was > 100 µM (inactive); in the assay on RPMI-8226, > 100 µM (inactive); with EKVX, > 100 µM (inactive); in the assay with 786-0 it was > 100 µM (inactive). Further, the GI50 in the assay with Malme-3M was > 100 µM (inactive); in the assay on SNB-75, 68.2 µM (inactive); in the assay on UO-31, 51.8 µM (inactive).
`O=C(CSc1nnc(-c2ccc(/N=C\c3ccc(Cl)cc3)cc2)o1)Nc1ccc(Cl)cc1Cl`: the GI50 was 40.2 µM (inactive) in the assay on SW-620; 23.3 µM in the assay on HCT-15; 25.2 µM (inactive) in the assay on SK-MEL-2; 27.2 µM (inactive) in the assay on SF-295; > 100 µM (inactive) with HCC 2998; 28.7 µM (inactive) in the assay with UACC-62. Also, the GI50 is 25.3 µM (inactive) in the assay on NCI-H23; 68.7 µM (inactive) with RXF 393; 22.2 µM (inactive) with SF-539; 32.4 µM (inactive) with RPMI-8226; 34.1 µM (inactive) with EKVX; 19.5 µM (inactive) in the assay on 786-0. The GI50 with Malme-3M was 21.5 µM (inactive); in the assay on SNB-75, 22.7 µM (inactive); in the assay on UO-31 it was 33 µM (inactive).
As to `NCCCNCc1c2ccccc2c(CNCCCN)c2ccccc12`, the GI50 was 6.84 µM (inactive) with SW-620; 22 µM with HCT-15; 14.9 µM (inactive) in the assay on SK-MEL-2; 22.3 µM (inactive) with SF-295; 17 µM (inactive) with HCC 2998; 36.1 µM (inactive) in the assay on UACC-62. Moreover, the GI50 with NCI-H23 is 18.6 µM (inactive); in the assay with RXF 393, 15.2 µM (inactive); in the assay with OVCAR-3, 28.3 µM (inactive); with SF-539 it was 14.6 µM (inactive); in the assay on EKVX it was 20.3 µM (inactive); in the assay with 786-0, 5.9 µM (inactive). Moreover, the figures for the GI50 with Malme-3M, in the assay with SNB-75 and with UO-31 were 11.7 µM (inactive), 19.8 µM (inactive) and 37.8 µM (inactive), respectively.
On to `Cc1ccc(NC(=O)c2cc3cc(/N=N/c4ccccc4C(=O)O)ccc3oc2=O)cc1`, for which the GI50 with SW-620 was 47.5 µM (inactive); with HCT-15, 34.5 µM; in the assay on SF-295, 44.4 µM (inactive); with UACC-62, 24.6 µM (inactive); with NCI-H23, 32.1 µM (inactive); with RXF 393, 51.4 µM (inactive). For the same compound, the GI50 was 25.2 µM (inactive) with OVCAR-3; 30.5 µM (inactive) with SF-539; 18.6 µM (inactive) in the assay on RPMI-8226; 46.1 µM (inactive) with EKVX; 94.6 µM (inactive) in the assay with 786-0; 43.2 µM (inactive) in the assay on Malme-3M. For the same compound, the figures for the GI50 in the assay with SNB-75 and with UO-31 were 45.9 µM (inactive) and 30.1 µM (inactive), respectively.
In the case of `C#CCNC(=O)N(CC#C)N=O`, the GI50 was > 100 µM (inactive) in the assay with SW-620; > 100 µM in the assay on HCT-15; > 100 µM (inactive) with SK-MEL-2; > 100 µM (inactive) in the assay with SF-295; > 100 µM (inactive) with HCC 2998; > 100 µM (inactive) in the assay with UACC-62. Also, the GI50 with NCI-H23, in the assay with RXF 393, in the assay with OVCAR-3, with SF-539, with EKVX and with 786-0 was > 100 µM (inactive) each time. Further, the GI50 in the assay with Malme-3M, with SNB-75 and in the assay with UO-31 was > 100 µM (inactive) in each case.
Turning to `CC(O)C(C(=O)O)N(CC1(O)OCC(O)C(O)C1O)N=O` (centres undefined), the GI50 in the assay with SW-620, with SK-MEL-2, in the assay with HCC 2998, with UACC-62, with NCI-H23 and in the assay with RXF 393 was > 100 µM (inactive) throughout. The GI50 with OVCAR-3, with SF-539, in the assay with RPMI-8226, in the assay with EKVX, in the assay with 786-0 and with Malme-3M was > 100 µM (inactive) throughout. Further, the GI50 in the assay on SNB-75 and in the assay with UO-31 was > 100 µM (inactive) in each case.
